Experiments:
Type in all cases: cell-based
[1] = tested on: Proteus mirabilis; assay: MIC against Gram-negative bacteria: Proteus mirabilis; details: P. mirabilis; 10 h cultivation at 37° C.; 5×10^5 CFU/mL
In short: (§1)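 LB broth cultures at McFarland 0.5, spun down, resuspended, diluted to 5×10^5 CFU/mL final. Two-fold serial dilutions of purified human EGF domain proteins, triplicate. 37° C, 175 rpm shaking. Endpoint: no visible growth.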

[2] = tested on: Moraxella catarrhalis; assay: MIC against Gram-negative bacteria: Moraxella catarrhalis; details: M. catarrhalis; 10 h cultivation at 37° C.; 5×10^5 CFU/mL
In short: as §1

[3] = tested on: Serratia marcescens; assay: MIC against Gram-negative bacteria: Serratia marcescens; details: S. marcescens; 10 h cultivation at 37° C.; 5×10^5 CFU/mL
In short: as §1

[4] = tested on: Enterobacter cloacae; assay: MIC against Gram-negative bacteria: Enterobacter cloacae; details: E. cloacae; 10 h cultivation at 37° C.; 5×10^5 CFU/mL
In short: as §1

[5] = tested on: Proteus vulgaris; assay: MIC against Gram-negative bacteria: Proteus vulgaris; details: P. vulgaris; 10 h cultivation at 37° C.; 5×10^5 CFU/mL
In short: as §1

[6] = tested on: Aeromonas hydrophila; assay: MIC against Gram-negative bacteria: Aeromonas hydrophila; details: A. hydrophila; 10 h cultivation at 37° C.; 5×10^5 CFU/mL
In short: as §1

[7] = tested on: Klebsiella pneumonia; assay: MIC against Gram-negative bacteria: Klebsiella pneumonia; details: K. pneumonia; 10 h cultivation at 37° C.; 5×10^5 CFU/mL
In short: as §1

[8] = tested on: E. coli BL21; assay: MIC against Gram-negative bacteria: E. coli BL21; details: E. coli BL21; 10 h cultivation at 37° C.; 5×10^5 CFU/mL
In short: as §1

[9] = tested on: Pseudomonas aeruginosa; assay: MIC against Gram-negative bacteria: Pseudomonas aeruginosa; details: P. aeruginosa; 10 h cultivation at 37° C.; 5×10^5 CFU/mL
In short: as §1

[10] = tested on: Citrobacter diversus; assay: MIC against Gram-negative bacteria: Citrobacter diversus; details: C. diversus; 10 h cultivation at 37° C.; 5×10^5 CFU/mL
In short: as §1

[11] = tested on: E. coli DH5α; assay: Antibacterial activity: MIC and growth curve against E. coli DH5α in 96-well plate; details: minimal inhibitory concentration against E. coli DH5α; 96-well plate, 5×10^5 CFU/mL, 37° C., judged after 8 h
In short: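 Log-phase bacteria (OD600 ~0.5) resuspended in LB at 5×10^5 CFU/mL, exposed to recombinant protein at 50, 25, 12.5 μg/mL final in triplicate, 37 °C shaking at 175 rpm. OD600 read every 30 min; MIC is lowest concentration showing no growth.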

Row | Substance | MIC [11] [µg/mL] | MIC (μg/mL) P. mirabilis [1] [µg/mL] | MIC (μg/mL) M. catarrhalis [2] [µg/mL] | MIC (μg/mL) S. marcescens [3] [µg/mL] | MIC (μg/mL) E. cloacae [4] [µg/mL] | MIC (μg/mL) P. vulgaris [5] [µg/mL] | MIC (μg/mL) A. hydrophila [6] [µg/mL] | MIC (μg/mL) K. pneumonia [7] [µg/mL] | MIC (μg/mL) E. coli BL21 [8] [µg/mL] | MIC (μg/mL) P. aeruginosa [9] [µg/mL] | MIC (μg/mL) C. diversus [10] [µg/mL] | further results
1 | PRT431 (DIDECRTIPEACRGDMMCVNQNGGYLCIPRTNPVYRGPYSN; listed as Homo sapiens) | 50 |  |  |  |  |  |  |  |  |  |  | MIC [1]: 50 µg/mL; MIC [2]: 12.5 µg/mL; MIC [3]: 12.5 µg/mL; MIC [4]: 50 µg/mL; MIC [5]: 25 µg/mL; MIC [6]: 12.5 µg/mL; MIC [7]: 12.5 µg/mL; MIC [8]: 12.5 µg/mL; MIC [9]: 50 µg/mL; MIC [10]: 50 µg/mL
2 | PRT437 (DEDECAAGNPCSHSCHNAMGTYYCSCPKGLTIAADGRTCQ; listed as Homo sapiens) | 50 |  |  |  |  |  |  |  |  |  |  | MIC [1]: 12.5 µg/mL; MIC [2]: 25 µg/mL; MIC [3]: 50 µg/mL; MIC [4]: 12.5 µg/mL; MIC [5]: 25 µg/mL; MIC [6]: 25 µg/mL; MIC [7]: 25 µg/mL; MIC [8]: 12.5 µg/mL; MIC [9]: 50 µg/mL; MIC [10]: 50 µg/mL
3 | PRT197 (LGYDCTTDKCNDRGVCNNKKHCHCSASYLPPDCS; listed as Homo sapiens) | 50 | 12.5 | 12.5 | 12.5 | 50 | 12.5 | 12.5 | 12.5 | 12.5 | 50 | 12.5 | 
4 | PRT195 (MGYNCNATTKCKGKGICNNFGNCQCFPGHRPPDCK; listed as Homo sapiens) | 25 | 50 | 25 | 12.5 | 12.5 | 25 | 50 | 50 | 12.5 | 50 | 12.5 | 
5 | PRT767 (AIDLCAEGTHGCEHHCVNSPGSYFCHCQVGFVLQQDQ; listed as Homo sapiens) | 25 | 25 | 50 | 50 | 50 | 12.5 | 12.5 | 12.5 | 50 | 25 | 25 | 
6 | PRT172 (CADGPCFNGGRCSDSPDGGYSCRCPVGYSGFNC; listed as Homo sapiens) | 12.5 | 12.5 | 12.5 | 12.5 | 12.5 | 12.5 | 12.5 | 25 | 25 | 50 | 12.5 | 
7 | PRT760 (KLDSCALGDHGCEHSCVSSEDSFVCQCFEGYILREDGKTCR; listed as Homo sapiens) | 50 | 12.5 | 50 | 12.5 | 12.5 | 50 | 50 | 50 | 25 | 12.5 | 12.5 | 
